Source: PubChem BioAssay AID248 (DTP/NCI, 2004)
Toxic doses and inconclusive results are not listed.

Test system: L1210 leukemia ip in BDF1 mice, survival T/C
Experiment: NCI In Vivo Anticancer Drug Screen. Data for tumor model L1210 Leukemia (intraperitoneal) in B6D2F1 (BDF1) mice
Settings: endpoint: mean survival time, higher = longer survival
In short: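 Transplanted-tumor mice were given test agent; controls received vehicle only. Survival readings from the two groups were divided (treated over control).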

[1] = dose: 100.0 mg/kg/injection, schedule: Q04DX003 (ip), vehicle: Klucel (hydroxypropylcellulose) (HPC)
[2] = dose: 100.0 mg/kg/injection, schedule: Q01DX001 (ip), vehicle: saline
[3] = dose: 200.0 mg/kg/injection, schedule: Q01DX001 (ip), vehicle: saline
[4] = dose: 100.0 mg/kg/injection, schedule: Q01DX009 (ip), vehicle: Klucel (hydroxypropylcellulose) (HPC)
[5] = dose: 200.0 mg/kg/injection, schedule: Q01DX009 (ip), vehicle: Klucel (hydroxypropylcellulose) (HPC)
[6] = dose: 400.0 mg/kg/injection, schedule: Q01DX009 (ip), vehicle: Klucel (hydroxypropylcellulose) (HPC)
[7] = dose: 200.0 mg/kg/injection, schedule: Q04DX003 (ip), vehicle: Klucel (hydroxypropylcellulose) (HPC)
[8] = dose: 400.0 mg/kg/injection, schedule: Q04DX003 (ip), vehicle: Klucel (hydroxypropylcellulose) (HPC)
[9] = dose: 12.5 mg/kg/injection, schedule: Q01DX009 (ip), vehicle: saline with Tween-80
[10] = dose: 25.0 mg/kg/injection, schedule: Q01DX009 (ip), vehicle: saline with Tween-80
[11] = dose: 50.0 mg/kg/injection, schedule: Q01DX009 (ip), vehicle: saline with Tween-80
[12] = dose: 200.0 mg/kg/injection, schedule: Q01DX009 (ip), vehicle: saline
[13] = dose: 50.0 mg/kg/injection, schedule: Q01DX001 (ip), vehicle: saline
[14] = dose: 100.0 mg/kg/injection, schedule: Q01DX009 (ip), vehicle: saline with Tween-80
[15] = dose: 200.0 mg/kg/injection, schedule: Q01DX009 (ip), vehicle: saline with Tween-80

O=C1/C(=C/c2ccccc2)CCC2C1CCCC21OCCO1 (stereo unspecified)
T/C (dose: 75.0 mg/kg/injection, schedule: Q01DX001 (ip), vehicle: saline): 97 % of control | T/C (dose: 75.0 mg/kg/injection, schedule: Q04DX003 (ip), vehicle: saline): 100 % of control | T/C (dose: 150.0 mg/kg/injection, schedule: Q01DX001 (ip), vehicle: saline): 95 % of control | T/C (dose: 150.0 mg/kg/injection, schedule: Q04DX003 (ip), vehicle: saline): 103 % of control | T/C (dose: 300.0 mg/kg/injection, schedule: Q01DX001 (ip), vehicle: saline): 107 % of control | T/C (dose: 300.0 mg/kg/injection, schedule: Q04DX003 (ip), vehicle: saline): 101 % of control

CC(=O)[O][Hg][c]1c(C)c(C)c(C)c(C)c1C
T/C (dose: 12.5 mg/kg/injection, schedule: Q04DX003 (ip), vehicle: saline with Tween-80): 87 % of control | T/C (dose: 25.0 mg/kg/injection, schedule: Q04DX003 (ip), vehicle: saline with Tween-80): 87 % of control | T/C (dose: 50.0 mg/kg/injection, schedule: Q04DX003 (ip), vehicle: saline with Tween-80): 87 % of control

O=[N+]([O-])c1ccc2nccc(Cl)c2c1
T/C (dose: 25.0 mg/kg/injection, schedule: Q01DX009 (ip), vehicle: Klucel (hydroxypropylcellulose) (HPC)): 97 % of control | T/C (dose: 50.0 mg/kg/injection, schedule: Q01DX009 (ip), vehicle: Klucel (hydroxypropylcellulose) (HPC)): 92 % of control | T/C [1]: 95 % of control

CCCCCCCCCCOC(=O)c1ccccn1
T/C [2]: 93 % of control | T/C [3]: 87 % of control

O=CC1(C(O)C2SCCCS2)SCCCS1 (stereo unspecified)
T/C (dose: 100.0 mg/kg/injection, schedule: Q01DX001 (ip), vehicle: other): 113 % of control | T/C (dose: 200.0 mg/kg/injection, schedule: Q01DX001 (ip), vehicle: other): 101 % of control | T/C (dose: 400.0 mg/kg/injection, schedule: Q01DX001 (ip), vehicle: other): 97 % of control

Cc1nc(N)c2c(n1)C(C)N(C(=O)c1ccccc1)C2 (stereo unspecified)
T/C (dose: 100.0 mg/kg/injection, schedule: Q01DX001 (ip), vehicle: carboxymethylcellulose (CMC)): 103 % of control | T/C (dose: 200.0 mg/kg/injection, schedule: Q01DX001 (ip), vehicle: carboxymethylcellulose (CMC)): 100 % of control | T/C (dose: 400.0 mg/kg/injection, schedule: Q01DX001 (ip), vehicle: carboxymethylcellulose (CMC)): 97 % of control

CCCCCCCCC(=O)NCc1ccco1
T/C [4]: 92 % of control | T/C [5]: 91 % of control | T/C [6]: 94 % of control

c1cc2cc3c(cc2c2c1CC1c4cc5c(cc4CCN1C2)OCO5)OCO3 (stereo unspecified)
T/C [4]: 103 % of control | T/C [1]: 101 % of control | T/C [5]: 97 % of control | T/C [7]: 97 % of control | T/C [6]: 97 % of control | T/C [8]: 94 % of control

CC(=O)C(CN(C)C)c1ccccc1 (stereo unspecified)
T/C [9]: 91 % of control | T/C (dose: 12.5 mg/kg/injection, schedule: Q04DX002 (ip), vehicle: saline with Tween-80): 102 % of control | T/C [10]: 98 % of control | T/C (dose: 25.0 mg/kg/injection, schedule: Q04DX002 (ip), vehicle: saline with Tween-80): 102 % of control | T/C [11]: 89 % of control | T/C (dose: 50.0 mg/kg/injection, schedule: Q01DX009 (ip), vehicle: saline): 103 % of control | T/C (dose: 50.0 mg/kg/injection, schedule: Q04DX002 (ip), vehicle: saline with Tween-80): 109 % of control | T/C [12]: 90 % of control

Cc1ncc(CO)c2c1OC(C)(C)OC2
T/C [13]: 97 % of control | T/C [2]: 100 % of control | T/C [3]: 103 % of control | T/C (dose: 400.0 mg/kg/injection, schedule: Q01DX001 (ip), vehicle: saline): 100 % of control

C[CH2][Pb]([CH2]C)([CH2]C)[N](C#N)C(=N)N
T/C (dose: 25.0 mg/kg/injection, schedule: Q04DX002 (ip), vehicle: Klucel (hydroxypropylcellulose) (HPC)): 97 % of control | T/C (dose: 50.0 mg/kg/injection, schedule: Q04DX002 (ip), vehicle: Klucel (hydroxypropylcellulose) (HPC)): 101 % of control

O=S(=O)(O)/[N+]([O-])=N/O
T/C (dose: 100.0 mg/kg/injection, schedule: Q04DX003 (ip), vehicle: saline sonified): 94 % of control | T/C (dose: 200.0 mg/kg/injection, schedule: Q04DX003 (ip), vehicle: saline sonified): 100 % of control | T/C (dose: 400.0 mg/kg/injection, schedule: Q04DX003 (ip), vehicle: saline sonified): 95 % of control

CCOc1ccc(P2(=S)SP(=S)(c3ccc(OCC)cc3)S2)cc1 (stereo unspecified)
T/C [14]: 97 % of control | T/C (dose: 100.0 mg/kg/injection, schedule: Q04DX002 (ip), vehicle: Klucel (hydroxypropylcellulose) (HPC)): 94 % of control | T/C [15]: 91 % of control | T/C (dose: 200.0 mg/kg/injection, schedule: Q04DX002 (ip), vehicle: Klucel (hydroxypropylcellulose) (HPC)): 88 % of control | T/C (dose: 400.0 mg/kg/injection, schedule: Q01DX009 (ip), vehicle: saline with Tween-80): 102 % of control | T/C (dose: 400.0 mg/kg/injection, schedule: Q04DX002 (ip), vehicle: Klucel (hydroxypropylcellulose) (HPC)): 102 % of control

CSc1nc(N)nc2c1ncn2C1OC(CO)C(O)C1O (stereo unspecified)
T/C (dose: 63.0 mg/kg/injection, schedule: Q01DX009 (ip), vehicle: saline): 98 % of control | T/C [2]: 105 % of control | T/C (dose: 108.0 mg/kg/injection, schedule: Q01DX009 (ip), vehicle: saline): 98 % of control | T/C (dose: 178.0 mg/kg/injection, schedule: Q01DX001 (ip), vehicle: saline): 110 % of control | T/C (dose: 180.0 mg/kg/injection, schedule: Q01DX009 (ip), vehicle: saline): 118 % of control | T/C [3]: 112 % of control | T/C (dose: 267.0 mg/kg/injection, schedule: Q01DX001 (ip), vehicle: saline): 121 % of control

Nc1cc(Cl)c(Cl)cc1S(=O)(=O)O
T/C [4]: 101 % of control | T/C [1]: 102 % of control | T/C [5]: 98 % of control | T/C [7]: 98 % of control | T/C [6]: 92 % of control | T/C [8]: 96 % of control

c1ccc(N2CCOCC2)cc1
T/C [9]: 93 % of control | T/C [10]: 100 % of control | T/C [11]: 89 % of control | T/C [4]: 95 % of control | T/C [14]: 92 % of control | T/C [5]: 93 % of control | T/C [15]: 92 % of control | T/C [6]: 101 % of control

COC(=O)c1cc2ccccc2c2c1OCN(C)C2
T/C [13]: 113 % of control | T/C [2]: 110 % of control

CCC(Cc1ccccc1Br)C1=NC(C)(C)CO1 (stereo unspecified)
T/C (dose: 100.0 mg/kg/injection, schedule: Q01DX009 (ip), vehicle: saline): 90 % of control | T/C (dose: 100.0 mg/kg/injection, schedule: Q04DX003 (ip), vehicle: saline): 105 % of control | T/C [12]: 90 % of control | T/C (dose: 200.0 mg/kg/injection, schedule: Q04DX003 (ip), vehicle: saline): 107 % of control | T/C (dose: 400.0 mg/kg/injection, schedule: Q01DX009 (ip), vehicle: saline): 106 % of control | T/C (dose: 400.0 mg/kg/injection, schedule: Q04DX003 (ip), vehicle: saline): 100 % of control

[O]=[Sn]([c]1ccccc1)[c]1ccccc1
T/C (dose: 64.0 mg/kg/injection, schedule: Q04DX002 (ip), vehicle: saline with Tween-80): 313 % of control

C=C(Br)CN(C)C(C)=O
T/C (dose: 6.25 mg/kg/injection, schedule: Q01DX009 (ip), vehicle: saline): 98 % of control | T/C (dose: 6.25 mg/kg/injection, schedule: Q04DX003 (ip), vehicle: saline): 101 % of control | T/C (dose: 12.5 mg/kg/injection, schedule: Q01DX009 (ip), vehicle: saline): 98 % of control | T/C (dose: 12.5 mg/kg/injection, schedule: Q04DX003 (ip), vehicle: saline): 106 % of control | T/C (dose: 25.0 mg/kg/injection, schedule: Q01DX009 (ip), vehicle: saline): 93 % of control | T/C (dose: 25.0 mg/kg/injection, schedule: Q04DX003 (ip), vehicle: saline): 98 % of control

O=NN(CCCl)C(=O)Nc1cc2c3ccccc3ccc2c2ccccc12
T/C (dose: 177.0 mg/kg/injection, schedule: Q01DX009 (ip), vehicle: carboxymethylcellulose (CMC)): 123 % of control

NCC(=O)c1ccc(Cl)cc1
T/C [2]: 102 % of control | T/C [3]: 104 % of control
